# Experimental data: ChEMBL document CHEMBL3785054, “Identification of inhibitors for vascular endothelial growth factor receptor by using dynamic combinatorial chemistry” (Bioorg Med Chem Lett, 2016)
# Calls of active or inactive are those of the source. The calls are words filed in the database; no cut-off is given here.
# Experiments:
# [1] = system: A549; assay: Cytotoxicity against human A549 cells by MTT assay; type: functional, cell-based
# [2] = system: MDA-MB-435; assay: Cytotoxicity against human MDA-MB-435 cells by MTT assay; type: functional, cell-based
# [3] = system: HT-29; assay: Cytotoxicity against human HT-29 cells by MTT assay; type: functional, cell-based
# [4] = Cytotoxicity against human PC3 cells by MTT assay; type: functional, cell-based; details: PC-3
# [5] = Cytotoxicity against human BGC823 cells by MTT assay; type: functional, cell-based; details: BGC-823
# [6] = Cytotoxicity against human […] cells by MTT assay; type: functional, cell-based
# [7] = system: Chorioallantoic membrane; assay: Antiangiogenic activity in chicken chorioallantoic membrane assessed as inhibition of vascular branch formation after 3 days; type: functional; details: Gallus gallus
Compound,IC50 [1],IC50 [2],IC50 [3],IC50 [4],IC50 [5],IC50 [6],inhibition [7],inhibition ([7]; dose or concentration not given here)
CCN(CC)CCNC(=O)c1c(C)[nH]c(/C=C2\C(=O)Nc3ccc(F)cc32)c1C [SUNITINIB],9.1 µM,9.3 µM,1.7 µM,55.6 µM,–,–,–,–
O=C(Nc1ccc2c(/C=N/c3ccccn3)n[nH]c2c1)Nc1nncs1,56.4 µM,4.8 µM,9.4 µM,> 100 µM,> 100 µM,> 100 µM,Active,–
CC1CC(=O)NN=C1c1ccc(NC(=O)Nc2ccc3c(/C=N/c4nccs4)n[nH]c3c2)cc1 (stereo unspecified),8.9 µM,22.7 µM,12.8 µM,5.6 µM,78 µM,11.2 µM,–,–
O=C(Nc1ccc2c(/C=N/c3ncccn3)n[nH]c2c1)Nc1nccs1,19.6 µM,55.2 µM,78.6 µM,6.8 µM,12.8 µM,15.4 µM,–,51.6%
O=C(Nc1ccc2c(/C=N/c3cccnc3)n[nH]c2c1)Nc1nncs1,2.4 µM,55.6 µM,12.1 µM,7.8 µM,67.2 µM,> 100 µM,Active,–
